Data taken from ChEMBL document CHEMBL1147554, “Novel pyrrole-containing progesterone receptor modulators” (Bioorg Med Chem Lett, 2004).
pEC50, pIC50: −log10 of the molar value. Activity calls are given as the source filed them. The rule behind the calls is not given here.

Experiments:
Progesterone receptor [1] = target: T1, Progesterone receptor (Homo sapiens, UniProt P06401); assay: Agonistic activity as progesterone receptor induced alkaline phosphatase activity in T47D human breast cancer cells; type: functional, cell-based
T1 sequence (P06401 whole entry): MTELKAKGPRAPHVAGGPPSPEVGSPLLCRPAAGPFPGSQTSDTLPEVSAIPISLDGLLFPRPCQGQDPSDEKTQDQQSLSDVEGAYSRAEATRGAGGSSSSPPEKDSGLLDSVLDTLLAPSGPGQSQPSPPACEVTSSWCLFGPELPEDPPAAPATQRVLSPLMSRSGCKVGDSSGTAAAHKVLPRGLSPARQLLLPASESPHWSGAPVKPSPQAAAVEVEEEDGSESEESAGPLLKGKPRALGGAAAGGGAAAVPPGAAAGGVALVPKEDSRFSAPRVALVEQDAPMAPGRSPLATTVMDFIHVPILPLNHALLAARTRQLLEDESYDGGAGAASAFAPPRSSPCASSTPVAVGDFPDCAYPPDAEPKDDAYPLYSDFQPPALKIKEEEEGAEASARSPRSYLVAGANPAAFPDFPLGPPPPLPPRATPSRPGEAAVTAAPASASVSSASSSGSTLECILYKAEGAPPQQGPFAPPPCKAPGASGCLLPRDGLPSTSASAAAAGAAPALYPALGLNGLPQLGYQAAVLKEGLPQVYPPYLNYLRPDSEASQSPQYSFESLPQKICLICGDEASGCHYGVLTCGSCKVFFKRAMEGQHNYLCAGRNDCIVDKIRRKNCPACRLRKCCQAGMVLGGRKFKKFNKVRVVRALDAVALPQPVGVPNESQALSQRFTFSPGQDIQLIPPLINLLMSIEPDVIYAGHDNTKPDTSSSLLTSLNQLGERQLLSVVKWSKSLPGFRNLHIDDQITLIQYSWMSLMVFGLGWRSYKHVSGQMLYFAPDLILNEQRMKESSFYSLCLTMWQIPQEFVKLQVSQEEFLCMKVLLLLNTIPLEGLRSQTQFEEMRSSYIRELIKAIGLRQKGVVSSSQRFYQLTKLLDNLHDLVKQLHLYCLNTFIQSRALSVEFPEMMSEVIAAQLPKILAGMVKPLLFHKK

[2] = target: T2, Progesterone receptor (Rattus norvegicus) (UniProt Q63449); assay: Percentage inhibition of progesterone-induced stimulation when administered orally at 10 mg/kg in rat decidualization assay; type: functional, organism-based; parameters: dose 10 mg/kg
T2 sequence (whole entry): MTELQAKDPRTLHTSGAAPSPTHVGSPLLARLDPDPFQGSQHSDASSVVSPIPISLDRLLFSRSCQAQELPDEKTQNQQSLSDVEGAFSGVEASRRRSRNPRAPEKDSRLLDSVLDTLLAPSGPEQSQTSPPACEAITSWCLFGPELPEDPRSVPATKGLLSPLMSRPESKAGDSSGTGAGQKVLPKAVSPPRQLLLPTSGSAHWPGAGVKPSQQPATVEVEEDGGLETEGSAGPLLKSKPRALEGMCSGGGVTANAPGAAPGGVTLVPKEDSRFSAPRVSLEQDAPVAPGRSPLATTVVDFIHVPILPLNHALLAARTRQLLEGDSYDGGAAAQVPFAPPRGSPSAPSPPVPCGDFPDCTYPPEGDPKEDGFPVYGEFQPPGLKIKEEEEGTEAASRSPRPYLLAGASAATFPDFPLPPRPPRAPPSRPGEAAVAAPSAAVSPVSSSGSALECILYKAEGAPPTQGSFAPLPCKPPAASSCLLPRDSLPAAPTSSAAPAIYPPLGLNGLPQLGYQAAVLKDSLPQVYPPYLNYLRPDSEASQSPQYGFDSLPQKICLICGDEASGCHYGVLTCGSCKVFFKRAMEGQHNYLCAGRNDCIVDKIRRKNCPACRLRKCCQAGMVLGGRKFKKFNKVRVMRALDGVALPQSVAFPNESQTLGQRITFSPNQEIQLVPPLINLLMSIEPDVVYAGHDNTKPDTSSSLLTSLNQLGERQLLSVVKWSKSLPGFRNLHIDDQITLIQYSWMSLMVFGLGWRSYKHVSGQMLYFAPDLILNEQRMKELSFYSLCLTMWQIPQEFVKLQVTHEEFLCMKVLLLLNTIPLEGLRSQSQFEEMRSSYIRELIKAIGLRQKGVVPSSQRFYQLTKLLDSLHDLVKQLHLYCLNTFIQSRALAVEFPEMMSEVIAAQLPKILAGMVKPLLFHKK

[3] = Displacement of [3H]progesterone at progesterone receptor of T47D cells; type: cell-based, Homo sapiens
[4] = target: T3, Progesterone receptor (Homo sapiens) (UniProt P06401); assay: Efficacy in vitro relative to P4 in progesterone receptor induced alkaline phosphatase T47D cell assay; type: functional, cell-based
T3 sequence (whole entry): T1 sequence (P06401 whole entry)

Progesterone receptor [5] = target: T1, Progesterone receptor; assay: Ability to block progesterone induced alkaline phosphatase activity in T47D human breast cancer cell line; type: functional, cell-based
Progesterone receptor [6] = target: T1, Progesterone receptor; assay: Agonistic activity measures the ability to induce alkaline phosphatase in T47D human breast cancer cell line; type: functional, cell-based
[7] = target: T2, Progesterone receptor (Rattus norvegicus); assay: Percentage inhibition of progesterone-induced stimulation when administered orally at 3 mg/kg in rat decidualization assay; type: functional, organism-based; parameters: dose 3 mg/kg
[8] = Agonistic activity for glucocorticoid receptor up to 10 uM; Not active; type: functional
[9] = Antagonist activity for glucocorticoid receptor; type: functional
[10] = target: T4, Androgen receptor (Homo sapiens) (UniProt P10275); assay: Agonistic activity for androgen receptor up to 10 uM; Not active; type: functional
T4 sequence (whole entry): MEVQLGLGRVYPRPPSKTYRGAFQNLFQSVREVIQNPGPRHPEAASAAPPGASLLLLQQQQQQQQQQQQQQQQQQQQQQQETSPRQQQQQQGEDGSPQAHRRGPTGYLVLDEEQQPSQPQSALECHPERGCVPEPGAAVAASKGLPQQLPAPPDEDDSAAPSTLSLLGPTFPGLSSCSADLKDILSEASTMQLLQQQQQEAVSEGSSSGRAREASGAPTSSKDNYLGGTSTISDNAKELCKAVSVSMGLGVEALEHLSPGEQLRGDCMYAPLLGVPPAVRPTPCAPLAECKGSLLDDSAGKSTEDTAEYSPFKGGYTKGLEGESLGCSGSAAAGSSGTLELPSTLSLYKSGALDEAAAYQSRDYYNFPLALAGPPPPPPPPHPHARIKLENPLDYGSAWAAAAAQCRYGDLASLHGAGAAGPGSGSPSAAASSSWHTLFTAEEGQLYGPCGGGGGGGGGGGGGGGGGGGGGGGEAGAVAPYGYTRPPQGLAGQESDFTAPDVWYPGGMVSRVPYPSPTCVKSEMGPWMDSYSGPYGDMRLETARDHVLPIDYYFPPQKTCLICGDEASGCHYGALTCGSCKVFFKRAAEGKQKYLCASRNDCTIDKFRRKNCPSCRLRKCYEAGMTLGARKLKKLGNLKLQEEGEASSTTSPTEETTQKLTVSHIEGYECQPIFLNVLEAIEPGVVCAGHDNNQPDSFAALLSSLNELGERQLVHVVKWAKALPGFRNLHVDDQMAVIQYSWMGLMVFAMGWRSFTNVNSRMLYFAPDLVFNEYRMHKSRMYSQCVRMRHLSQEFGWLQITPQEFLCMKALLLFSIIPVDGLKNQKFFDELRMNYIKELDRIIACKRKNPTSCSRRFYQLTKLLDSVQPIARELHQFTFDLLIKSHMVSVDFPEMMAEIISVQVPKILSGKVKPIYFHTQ

Androgen receptor = target: T5, Androgen receptor (Homo sapiens, UniProt P10275); assay: Antagonist activity for androgen receptor; type: functional
T5 sequence (P10275 whole entry): T4 sequence (whole entry)

Row | pIC50 [3] | pIC50 (Progesterone receptor [5]) | pEC50 (Progesterone receptor [6]) | Compound | also measured
1 | 8.31 | < 5.52 | – | Cn1c(C#N)ccc1-c1ccc2c(c1)C(C)(C)OC(=O)N2 | pEC50 (Progesterone receptor [1]): 8.96; inhibition [2]: 50%; Efficacy [4]: 80%
2 | 8.47 | < 5.52 | 8.55 | Cn1c(C#N)ccc1-c1ccc2c(c1)C1(CCCCC1)C(=O)N2 | –
3 | 8.03 | ~5.52 | – | CCn1c(C#N)ccc1-c1ccc2c(c1)C(C)(C)OC(=O)N2 | pEC50 (Progesterone receptor [1]): 8.74; inhibition [2]: 30%; Efficacy [4]: 80%
4 | – | 7.64 | ~6.00 | CC1(C)OC(=O)Nc2ccc(-c3ccc(C#N)s3)cc21 | –
5 | 7.54 | < 5.52 | 8.68 | CC1(C)OC(=O)Nc2ccc(-c3ccc(C#N)[nH]3)cc21 | –
6 | – | 7.44 | < 6.00 | O=C1Nc2ccc(-c3ccc([N+](=O)[O-])[nH]3)cc2C12CCCCC2 | inhibition [7]: 50%
7 | – | < 5.52 | 7.22 | N#Cc1ccc(-c2ccc3c(c2)C2(CCCCC2)C(=O)N3)[nH]1 | –
8 | – | ~5.70 | < 6.00 | CC1(C)OC(=O)Nc2ccc(-c3c[nH]c(C#N)c3)cc21 | –
9 | 9.15 | – | – | CC#C[C@]1(O)CC[C@H]2[C@@H]3CCC4=CC(=O)CCC4=C3[C@@H](c3ccc(N(C)C)cc3)C[C@@]21C [MIFEPRISTONE] | –

Second part, the compound before the results:

Row | Compound | pIC50 [3] | pIC50 (Progesterone receptor [5]) | pEC50 (Progesterone receptor [6]) | also measured
10 | CC(=O)[C@H]1CC[C@H]2[C@@H]3CCC4=CC(=O)CC[C@]4(C)[C@H]3CC[C@]12C [PROGESTERONE] | 8.47 | – | – | –
11 | CC1(C)OC(=O)Nc2ccc(-c3[nH]ccc3C#N)cc21 | – | < 5.52 | < 6.00 | –
12 | CC1(C)OC(=O)Nc2ccc(-c3ccc(C=O)[nH]3)cc21 | – | < 5.52 | ~6.00 | –
13 | CC1(C)OC(=O)Nc2ccc(-c3ccc(C(=O)C(F)(F)F)[nH]3)cc21 | – | < 5.52 | ~6.00 | –
14 | CC1(C)OC(=O)Nc2ccc(-c3cccc(C#N)c3)cc21 | 7.74 | 8.10 | ~6.00 | –
15 | Cn1cc(-c2ccc3c(c2)C(C)(C)OC(=O)N3)cc1C#N | 7.06 | 7.39 | < 6.00 | –
16 | CC1(C)OC(=O)Nc2ccc(-c3ccc([N+](=O)[O-])[nH]3)cc21 | – | 6.74 | ~6.00 | –
17 | CC1(C)OC(=O)Nc2ccc(-c3ccc[nH]3)cc21 | – | ~5.52 | < 5.52 | –
18 | CC1(C)OC(=O)Nc2ccc(-c3cnc(C#N)o3)cc21 | – | ~5.52 | < 6.00 | –
19 | Cn1c(-c2ccc3c(c2)C(C)(C)OC(=O)N3)cnc1C#N | – | < 5.52 | 6.89 | –
20 | Cn1ccc(C#N)c1-c1ccc2c(c1)C(C)(C)OC(=O)N2 | – | ~5.52 | < 6.00 | –
21 | CC1(C)OC(=O)Nc2ccc(-c3ccc(C#N)o3)cc21 | – | 7.19 | ~5.52 | –
22 | N#Cc1cccc(-c2ccc3c(c2)C2(CCCCC2)C(=O)N3)c1 | – | – | – | Activity [8]: inactive; pIC50 [9]: < 6.00; Activity [10]: inactive; pIC50 (Androgen receptor): < 6.00
